Results taken from patent publication US6331646A, “Amorphous N-[N-(3,3-dimethylbutyl)-L-α-aspartyl]-L-phenylalanine 1-methyl ester” (The NutraSweet Co., priority 1999, dated 2001).
Like-named read-outs stand apart in the source and are kept apart here.

Key:
[1] = Solubility measurements in several solvent systems; type: physicochemical; details: for Solubility, 10:90 EtOH:H2 O: 10:90 Ethanol (EtOH):H2 O; for Solubility, 50:50 EtAc:Hexane: 50:50 Ethyl Acetate (EtAc):Hexane
Procedure: (§1) 25 grams of neotame was spread out equally on six containers and heated slowly past its melting point of about 82° C. until a temperature of about 92° C. was reached. […] Once 92° C. was reached, all of the neotame was melted. The containers containing the neotame were removed from the oven and allowed to cool to room temperature, about 23° C. The neotame was removed from the containers, and ground to a […] powder with a mortar and pestle. The x-ray diffraction pattern of the resulting amorphous neotame is illustrated in FIG. 1. Rates of dissolution and solubility measurements were then determined in several different solvent systems (deionized water; 0.1M phosphate (pH3) in water; 10:90 Ethanol (EtOH):H2 O; and 50:50 Ethyl Acetate (EtAc):Hexane) and compared to the conventional form of the neotame monohydrate.

[2] = Rate of dissolution compared to neotame monohydrate; type: physicochemical; details: in a variety of solvents commonly used in the food industry; FIG. 3 and FIG. 4 at 20° C.
Procedure: as §1, with “monohydrate. The solubility results are set forth below:” for “monohydrate.”
FIG. 3 illustrates a comparison of the dissolution of the amorphous neotame of Example 1 with neotame monohydrate in deionized water at 20° C. FIG. 4 illustrates a similar comparison in 0.1 M phosphate buffer.

Sweetening potency = details: amorphous neotame; "is believed to have"
[3] = known sweetener neotame; cited from earlier work

Compound	Solubility, 0.1 M Phosphate pH3 ([1]; 0.1M phosphate (pH3) in water)	Solubility, 10:90 EtOH:H2 O [1]	Solubility, 50:50 EtAc:Hexane [1]	Solubility, Water ([1]; deionized water)	solubility compared to that of the monohydrate form ([1]; in a variety of solvents commonly used in the food industry)	rate of dissolution compared to that of the monohydrate form [2]	sweetening potency relative to aspartame (believed) (Sweetening potency)	solubility ([1]; 0.1 m phosphate, pH 3, 0.1M phosphate (pH3) in water, read-out: Solubility, 0.1 M Phosphate pH3) [mg/mL]	solubility ([1]; water, deionized water, read-out: Solubility, Water) [mg/mL]	sweetening potency relative to aspartame [3]	sweetening potency relative to sucrose [3]
COC(=O)[C@H](Cc1ccccc1)NC(=O)[C@H](CC(=O)O)NCCC(C)(C)C [Example 1, amorphous N-[N-(3,3-dimethylbutyl)-L-α-aspartyl]-L-phenylalanine 1-methyl ester]	1.49 grams of neotame/100 grams sol	1.57 grams of neotame/100 grams sol	3.07 grams of neotame/100 grams sol	1.35 grams of neotame/100 grams sol	higher solubility	reduced rate of dissolution	around 40 times that of aspartame	–	–	–	–
COC(=O)[C@H](Cc1ccccc1)NC(=O)[C@H](CC(=O)O)NCCC(C)(C)C [Neotame Monohydrate, N-[N-(3,3-dimethylbutyl)-L-α-aspartyl]-L-phenylalanine 1-methyl ester]	–	1.55 grams of neotame/100 grams sol	1.29 grams of neotame/100 grams sol	–	–	–	–	13.5	12.8	–	–
COC(=O)[C@H](Cc1ccccc1)NC(=O)[C@H](CC(=O)O)NCCC(C)(C)C [Neotame, N-[N-(3,3-dimethylbutyl)-L-α-aspartyl]-L-phenylalanine 1-methyl ester]	–	–	–	–	–	–	–	–	–	about 40 times that of aspartame	about 8,000 times that of sucrose
